From the supplement of paper PMC11061612

Experiments:
Test in all cases: combination Emax (second highest fraction inhibited in the dose matrix, 72 h); higher = more inhibition; extreme values may be limits of the assay
SK-MEL-24 (Melanoma) = system: SK-MEL-24 (Melanoma)
Method in brief: (§1)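 Cell lines grown in DMEM/F12 or RPMI with 10% FBS were plated in 1536-well plates and held 24 hours at 37°C, 5% CO2 before 72 hours of exposure to two-drug dose matrices, with DMSO typically at 0.2%. CellTiter-Glo 2.0 luminescence gave viability, which was converted to inhibition. Vehicle wells were set to 0 and blank wells to 1. Combination Emax is the second-highest inhibition in the matrix, and Bliss excess is the observed combination effect minus the expected EA + EB − EA·EB, where EA and EB are the single-agent effects.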

[1] = system: OVKATE (Ovarian Carcinoma)
Method in brief: as §1

MG-63 (Osteosarcoma) = system: MG-63 (Osteosarcoma)
Method in brief: as §1

[2] = system: BC-1 (B-Cell Non-Hodgkin's Lymphoma)
Method in brief: as §1

[3] = system: MRK-nu-1 (Breast Carcinoma)
Method in brief: as §1

NCI-H2452 (Mesothelioma) = system: NCI-H2452 (Mesothelioma)
Method in brief: as §1

[4] = system: CAL-85-1 (Breast Carcinoma)
Method in brief: as §1

[5] = system: COR-L105 (Lung Adenocarcinoma)
Method in brief: as §1

[6] = system: SW1463 (Colorectal Carcinoma)
Method in brief: as §1

[7] = system: NTERA-2-cl-D1 (Other Solid Carcinomas)
Method in brief: as §1

[8] = system: SBC-3 (Small Cell Lung Carcinoma)
Method in brief: as §1

[9] = system: NCI-H1435 (Non-Small Cell Lung Carcinoma)
Method in brief: as §1

[10] = system: NCI-H835 (Other Solid Carcinomas)
Method in brief: as §1

SMILES	combination Emax (SK-MEL-24 (Melanoma))	combination Emax [1]	combination Emax (MG-63 (Osteosarcoma))	combination Emax [2]	combination Emax [3]	combination Emax (NCI-H2452 (Mesothelioma))	combination Emax [4]	combination Emax [5]	combination Emax [6]	combination Emax [7]	combination Emax [8]	combination Emax [9]	combination Emax [10]
CC1(C)CCC(CN2CCN(c3ccc(C(=O)NS(=O)(=O)c4ccc(NCC5CCOCC5)c([N+](=O)[O-])c4)c(Oc4cnc5[nH]ccc5c4)c3)CC2)=C(c2ccc(Cl)cc2)C1 [Venetoclax] + CS(=O)(=O)CCNCc1ccc(-c2ccc3ncnc(Nc4ccc(OCc5cccc(F)c5)c(Cl)c4)c3c2)o1 [Lapatinib] (first compound max 1 µM, 7x7, partner max 10 µM)	0.683	0.182	0.302	0.904	0.114	0.29	0.657	0.587	0.4	0.2	0.183	0.195	0.294
C[C@@H]1COCCN1c1cc(C2([S@](C)(=N)=O)CC2)nc(-c2ccnc3[nH]ccc23)n1 [AZD6738] + Nc1ccn([C@@H]2O[C@H](CO)[C@@H](O)C2(F)F)c(=O)n1 [Gemcitabine] (first compound max 10 µM, 7x7, partner max 0.3 µM)	0.841	0.345	1	0.985	0.781	0.763	0.726	0.543	0.792	0.592	0.97	0.411	0.446
C=CCn1c(=O)c2cnc(Nc3ccc(N4CCN(C)CC4)cc3)nc2n1-c1cccc(C(C)(C)O)n1 [AZD1775] + Nc1ccn([C@@H]2O[C@H](CO)[C@@H](O)C2(F)F)c(=O)n1 [Gemcitabine] (first compound max 1 µM, partner max 0.3 µM)	0.793	0.261	0.955	0.995	0.688	0.693	0.697	0.428	0.763	0.614	0.949	0.345	0.476
Cc1nc(-c2cn3c(n2)-c2ccc(-c4cnn(C(C)(C)C(N)=O)c4)cc2OCC3)n(C(C)C)n1 [Taselisib] + O=C(Nc1ccc2[nH]nc(-c3ccncc3)c2c1)[C@@H]1CCN(CC(=O)N2CCN(c3ccc(-c4ncccn4)cc3)CC2)C1 [SCH772984] (first compound max 10 µM, 7x7, partner max 5 µM)	0.93	0.423	0.746	0.652	0.542	0.534	0.935	0.788	0.798	0.64	0.76	0.791	0.71
Cc1c2c(nn1C)CSCc1cc(n(C)n1)CSc1cc(c3ccccc3c1)OCCCc1c(C(=O)O)n(C)c3c-2c(Cl)ccc13 [AZD5991] + Nc1ccn([C@@H]2O[C@H](CO)[C@@H](O)C2(F)F)c(=O)n1 [Gemcitabine] (first compound max 1 µM, 7x7, partner max 0.3 µM)	0.758	0.165	0.82	1	1	0.319	0.558	0.377	0.516	0.536	0.962	0.317	0.42
O=C(c1cc(Cc2n[nH]c(=O)c3ccccc23)ccc1F)N1CCN(C(=O)C2CC2)CC1 [Olaparib] + Cc1c2c(nn1C)CSCc1cc(n(C)n1)CSc1cc(c3ccccc3c1)OCCCc1c(C(=O)O)n(C)c3c-2c(Cl)ccc13 [AZD5991] (first compound max 10 µM, 7x7, partner max 1 µM)	0.0746	0.0781	0.216	1	1	0.165	0.168	0.0887	0.192	0.531	0.523	0.117	0.149
C[C@@H](Nc1cc(F)cc(F)c1)c1cc(C(=O)N(C)C)cc2c(=O)cc(N3CCOCC3)oc12 [AZD8186] + C1CN(CCC1(C(=O)N[C@@H](CCO)C2=CC=C(C=C2)Cl)N)C3=NC=NC4=C3C=CN4 [AZD5363] (first compound max 10 µM, 7x7, partner max 10 µM)	0.508	0.252	0.694	0.577	0.305	0.336	0.214	0.41	0.274	0.348	0.446	0.258	0.525
O=C(c1cc(Cc2n[nH]c(=O)c3ccccc23)ccc1F)N1CCN(C(=O)C2CC2)CC1 [Olaparib] + COc1nnc2ccc(N3CCC(c4ccc(OCCN5CCN(C)C(=O)[C@H]5C)cc4)CC3)nn12 [AZD5153] (first compound max 10 µM, 7x7, partner max 1 µM)	0.419	0.264	0.717	0.873	0.467	0.407	0.613	0.404	0.561	0.649	0.703	0.223	0.403
